According to US6313177A, “D-mannitol derivatives as HIV aspartyl protease inhibitors” (Pharmacor Inc., priority 1999, dated 2001):

These compounds were tested against T1, recombinant HIV-1 protease (Human immunodeficiency virus type 1 group M subtype B, UniProt P04585) (assay: Fluorometric (FRET) enzymatic assay for the inhibition constant (Ki) against the HIV protease). Conditions: Table 1, benzylated D-mannitol derivatives; pH 4.7, 30° C., substrate 10 μM, protease 18.3 nM.
T1 construct: recombinant HIV-1 protease; purchased Bachem Bioscience
Assay type: biochemical
From the text: Enzymatic Assay for Determining the Inhibition Constant (Ki) of Synthetic Compounds Prepared Against the HIV Protease
This is a fluorometric assay based on the cleavage by protease of a substrate carrying a donor group (EDANS, excitation at 340 nm and emission at 490 nm) and an acceptor group (DABCYL) on each side of the cleavage site, interacting together through fluorescence resonance energy transfer (FRET). Cleavage of the substrate by protease stops energy exchange between the two groups, resulting in a time-dependent increase in fluorescence intensity that is linearly related to the extent of substrate hydrolysis.
The enzymatic assay is done at 30° C. in a spectrophotometer microcuvet, in a total volume of 400 μL. The apparatus used for readings is a UV-visible Cary 1 spectrophotometer made by Varian. The reaction is run first in the absence of protease inhibitors for 2 min, using 355 μL of buffer at pH 4.7 (sodium acetate 100 mM, NaCl 1 M, EDTA 1 mM, DTT 1 mM, dimethylsulfoxide 10%, and BSA 1 mg/mL), 40 μL of substrate H-2930 from Molecular Probes (final concentration 10 μM) and 5 μL of recombinant HIV-1 protease (final concentration 18.3 nM) purchased from Bachem Bioscience. Fluorescence readings at […] are taken continuously during the reaction, allowing determination of the enzyme's initial velocity (v0). At the end of the 2 min incubation, the potential inhibitor at a defined concentration in a volume of 2 μL is added to the reaction, and fluorescence readings are taken for another 2 min, allowing determination of enzyme velocity (vi) in the presence of the inhibitory compound. Several concentrations of the putative inhibitors are tested in the assay. After calculation of vo and vi, the inhibition constant (Ki) of the compound is determined using the equation of Henderson: [formula]
and [I]=inhibitor concentration, [S ]=substrate concentration, Km=Michaelis-Menten constant, Kiapp =apparent Ki
Note that the Michaelis-Menten constant of HIV protease is determined by running the assay without inhibitors, using several concentrations of substrate, and plotting the results as a Cornish-Bowden graph with the ratio substrate concentration/velocity as the ordinate and substrate concentration as the abscissa.

SMILES	Ki [nM]
Oc1cccc(CO[C@H](COCc2ccccc2)[C@@H](O)[C@H](O)[C@@H](COCc2ccccc2)OCc2cccc(O)c2)c1 [Compound 3, 1,6-di-O-benzyl-2,5-di-O-(3-hydroxybenzyl)-D-mannitol]	6000
Oc1ccc(COC[C@@H](OCc2ccc(F)cc2)[C@@H](O)[C@H](O)[C@@H](COCc2ccc(O)cc2)OCc2ccc(F)cc2)cc1 [Compound 4, 1,6-di-O-(4-hydroxybenzyl)-2,5-di-O-(4-fluorobenzyl)-D-mannitol]	400
Oc1ccc(CO[C@H](COCc2ccccc2F)[C@@H](O)[C@H](O)[C@@H](COCc2ccccc2F)OCc2ccc(O)cc2)cc1 [Compound 5, 1,6-di-(2-fluorobenzyl)-2,5-di-(4-hydroxybenzyl)-D-mannitol]	2700
O[C@@H]([C@H](O)[C@@H](COCc1ccccc1)OCc1ccc(OCc2ccccc2)cc1)[C@@H](COCc1ccccc1)OCc1ccc(OCc2ccccc2)cc1 [Compound 6, 1,6-di-O-benzyl-2,5-di-O-(4-benzyloxybenzyl)-D-mannitol]	< 1000
Nc1ccc(CO[C@H](COCc2ccccc2)[C@@H](O)[C@H](O)[C@@H](COCc2ccccc2)OCc2ccccc2)cc1 [Compound 9, 1,2,6-tri-O-benzyl-5-O-(4-aminobenzyl)-D-mannitol]	3300
O[C@@H]([C@H](O)[C@@H](COCc1ccccc1F)OCc1ccccc1)[C@@H](COCc1ccccc1)OCc1ccccc1 [Compound 10, 1,2,5-tri-O-benzyl-6-O-(2-fluorobenzyl)-D-mannitol]	400
O[C@@H]([C@H](O)[C@@H](COCc1ccc(C(F)(F)F)cc1)OCc1ccc(C(F)(F)F)cc1)[C@@H](COCc1ccc(C(F)(F)F)cc1)OCc1ccc(C(F)(F)F)cc1 [Compound 11, 1,2,5,6-tetra-O-(4-trifluoromethylbenzyl)-D-mannitol]	> 5000

Next, values leading:

Ki [nM]	SMILES
3100	N#Cc1ccc(COC[C@@H](OCc2ccc(C#N)cc2)[C@@H](O)[C@H](O)[C@@H](COCc2ccc(C#N)cc2)OCc2ccc(C#N)cc2)cc1 [Compound 12, 1,2,5,6-tetra-O-(4-cyanobenzyl)-D-mannitol]
5400	N#Cc1ccc(CO[C@H](COCc2ccccc2)[C@@H](O)[C@H](O)[C@@H](COCc2ccccc2)OCc2ccc(C#N)cc2)cc1 [Compound 14, 1,6-di-O-benzyl-2,5-di-O-(4-cyanobenzyl)-D-mannitol]
> 5000	O[C@@H]([C@H](O)[C@@H](COCc1ccccc1)OCc1c(F)c(F)c(F)c(F)c1F)[C@@H](COCc1ccccc1)OCc1c(F)c(F)c(F)c(F)c1F [Compound 15, 1,6-di-O-benzyl-2,5-di-O-(pentafluorobenzyl)-D-mannitol]
700	O[C@@H]([C@H](O)[C@@H](COCc1ccccc1)OCc1ccc(F)cc1)[C@@H](COCc1ccccc1)OCc1ccc(F)cc1 [Compound 16, 1,6-di-O-benzyl-2,5-di-O-(4-fluorobenzyl)-D-mannitol]
2000	O[C@@H]([C@H](O)[C@@H](COCc1ccccc1)OCc1ccc(Cl)cc1)[C@@H](COCc1ccccc1)OCc1ccc(Cl)cc1 [Compound 17, 1,6-di-O-benzyl-2,5-di-O-(4-chlorobenzyl)-D-mannitol]
2100	O[C@@H]([C@H](O)[C@@H](COCc1ccccc1)OCc1ccc(Br)cc1)[C@@H](COCc1ccccc1)OCc1ccc(Br)cc1 [Compound 18, 1,6-di-O-benzyl, 2,5-di-O-(4-bromobenzyl)-D-mannitol]
8400	COC(=O)c1ccc(CO[C@H](COCc2ccccc2)[C@@H](O)[C@H](O)[C@@H](COCc2ccccc2)OCc2ccc(C(=O)OC)cc2)cc1 [Compound 19, 1,6-di-O-benzyl-2,5-di-O-(4-carbomethoxybenzyl)-D-mannitol]

Same assay, conditions: Table 2, tetra-substituted D-mannitol derivatives; pH 4.7, 30° C., substrate 10 μM, protease 18.3 nM

Ki [nM]	SMILES
800	O[C@H]([C@@H](O)[C@H](COCc1cccs1)OCc1ccccc1)[C@H](COCc1cccs1)OCc1ccccc1 (stereo in doubt) [Compound 92, 1,6-di-O-(2-thienylmethyl)-2,5-di-O-benzyl-L-mannitol]
